# According to publication PMC5918173, “Characterization of Transglutaminase 2 activity inhibitors in monocytes in vitro and their effect in a mouse model for multiple sclerosis” (PLoS ONE, 2018):
# Key:
# [1] = tested on: EAE C57BL/6 mice; assay: MOG35-55 induced EAE in C57BL/6 mice, treatment with TG2 inhibitors; format: in vivo, mouse; conditions: for loss of body weight compared to vehicle / severity of motor symptoms compared to vehicle: 25 mg/kg i.p. twice daily from onset of EAE symptoms
# Text: All animal experiments were approved by the animal ethical committee of the VU University Medical Center and carried out within the animal facility of the Vrije Universiteit Amsterdam (protocol number ANW14-02). C57BL/6 (C57BL/6JOlaHsd) mice were purchased from Harlan (The Netherlands) at an age of 10 weeks and acclimatized to the new environment with water and food access ad libitum for 2 weeks before EAE induction. Humane endpoints were taken into account to prevent unnecessary suffering of the animals.
# Active EAE was induced with the myelin oligodendrocyte glycoprotein peptide amino acids 35-55 (MOG35-55) from a EAE induction kit (Hooke laboratories), according to the provided protocol. In short, mice were injected subcutaneously in the upper and lower back with 100 μl of an emulsion of MOG35-55 in complete Freund’s adjuvant (CFA, containing heat inactivated Mycobacterium tuberculosis) each. At 3 hours and 26 hours after the subcutaneous injection of the emulsion, mice received an intraperitoneal injection of 150 ng pertussis toxin dissolved in PBS (volume: 0.1 ml). Disease symptoms and bodyweight were assessed daily starting from day 7 after immunization according to the following scale: 0 no disease, 0.5: partial tail weakness, 1: tail paralysis, 2: hind limb weakness, 3: partial hind limb paralysis, 4: complete hind limb paralysis, 5: moribund, dead.
# The mice were injected twice daily with BJJF078 (n = 11) or ERW1041 (n = 12), starting from the onset of EAE symptoms until the end of the experiment (day 21/day 28 after immunization). The EAE animals were injected intraperitoneally with an inhibitor dose of 25 mg/kg bodyweight (i.e. ~100 μl) containing 20% DMSO, while the corresponding control groups (n = 12 and n = 10) were injected with PBS in 20% DMSO.
# [2] = molecular target: T1, human TG1 (Homo sapiens, UniProt P22735); assay: Inhibition of recombinant Transglutaminase activity (fluorescent substrate), human TG1; format: biochemical; conditions: human recombinant TG1, Fig 2B; read-out: IC50 to inhibit TG1
# T1 construct: purchased Zedira
# T1 sequence (P22735 1-817): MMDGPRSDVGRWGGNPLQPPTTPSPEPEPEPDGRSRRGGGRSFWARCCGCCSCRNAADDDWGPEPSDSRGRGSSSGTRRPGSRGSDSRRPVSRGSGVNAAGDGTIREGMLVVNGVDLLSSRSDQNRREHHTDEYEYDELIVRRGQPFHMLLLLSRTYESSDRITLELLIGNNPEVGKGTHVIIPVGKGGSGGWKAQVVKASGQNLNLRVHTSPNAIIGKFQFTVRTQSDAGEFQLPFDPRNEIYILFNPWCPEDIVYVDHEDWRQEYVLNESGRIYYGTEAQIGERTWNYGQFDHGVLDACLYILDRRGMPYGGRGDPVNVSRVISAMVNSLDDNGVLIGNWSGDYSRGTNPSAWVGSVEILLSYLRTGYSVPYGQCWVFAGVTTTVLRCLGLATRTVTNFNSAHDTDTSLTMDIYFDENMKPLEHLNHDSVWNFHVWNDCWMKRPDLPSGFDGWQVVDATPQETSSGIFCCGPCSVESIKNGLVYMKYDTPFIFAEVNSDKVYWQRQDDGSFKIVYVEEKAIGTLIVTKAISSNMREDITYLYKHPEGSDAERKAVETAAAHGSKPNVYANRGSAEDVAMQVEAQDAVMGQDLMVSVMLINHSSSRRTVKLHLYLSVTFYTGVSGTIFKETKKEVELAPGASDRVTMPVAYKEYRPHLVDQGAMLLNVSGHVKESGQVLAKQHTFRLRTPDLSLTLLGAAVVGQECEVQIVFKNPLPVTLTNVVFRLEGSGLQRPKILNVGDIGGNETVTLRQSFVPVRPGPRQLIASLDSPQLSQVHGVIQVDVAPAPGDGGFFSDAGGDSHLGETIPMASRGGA
# Procedure: (§1) The potency and specificity of TG2 inhibitors was assessed with various recombinant TGs, as previously described. The reaction buffer (50 mM Tris, 100 mM NaCl, 10 mM CaCl2, 5 mM H-Gly-OMe*HCl (glycinemethylestherhydrochloride, Sigma), 5 mM hexadimethinbromide (Sigma), 9.1 mM DTT, pH 7.5) was heated to 37°C in a 96 well plate. Then 50 μM of the TG substrate Abz-NE(CAD-DNP)EQVSPLTLLK-OH (Zedira) was added. 1 μg/ml recombinant TG (human TG1, human (hTG2) / mouse TG2 (mTG2) or human Factor XIII (FXIII); Zedira) were added. The two lyophilized TG2 inhibitors (see Fig 1 for chemical structure) BJJF078 (3,4-Dimethoxy-N-(5-[4-(acryloylamino)piperidine-1-sulfonyl]-naphthalen-1-yl)-benzamide, kindly provided by Dr S. El Alaoui, Covalab, France) and ERW1041E (2-[(3-Bromo-4,5-dihydro-isoxazol-5-ylmethyl)-carbamoyl]-pyrrolidine-1—carboxylic acid quinolin-3-ylmethyl ester, kindly provided by Prof C. Khosla, Stanford University, USA) were dissolved in DMSO (stock solution: 54 mM) and stored at -80°C. These stocks were further diluted and various concentrations of the TG2 inhibitors (0.3 nM to 100 μM), were added to the wells (final DMSO concentration per well: 0.06%). The relative increase in fluorescence emission, correlating with enzymatic activity, was measured over 4 h with a fluorimeter (Excitation: 320nm, emission: 405 nm; Fluostar, GMB).
# [3] = molecular target: T2, recombinant mouse TG2 (mTG2) (Mus musculus, UniProt P21981); assay: Inhibition of recombinant Transglutaminase activity (fluorescent substrate), mouse TG2; format: biochemical; conditions: recombinant mouse TG2, Fig 2A
# T2 construct: purchased Zedira
# T2 sequence (P21981 1-686): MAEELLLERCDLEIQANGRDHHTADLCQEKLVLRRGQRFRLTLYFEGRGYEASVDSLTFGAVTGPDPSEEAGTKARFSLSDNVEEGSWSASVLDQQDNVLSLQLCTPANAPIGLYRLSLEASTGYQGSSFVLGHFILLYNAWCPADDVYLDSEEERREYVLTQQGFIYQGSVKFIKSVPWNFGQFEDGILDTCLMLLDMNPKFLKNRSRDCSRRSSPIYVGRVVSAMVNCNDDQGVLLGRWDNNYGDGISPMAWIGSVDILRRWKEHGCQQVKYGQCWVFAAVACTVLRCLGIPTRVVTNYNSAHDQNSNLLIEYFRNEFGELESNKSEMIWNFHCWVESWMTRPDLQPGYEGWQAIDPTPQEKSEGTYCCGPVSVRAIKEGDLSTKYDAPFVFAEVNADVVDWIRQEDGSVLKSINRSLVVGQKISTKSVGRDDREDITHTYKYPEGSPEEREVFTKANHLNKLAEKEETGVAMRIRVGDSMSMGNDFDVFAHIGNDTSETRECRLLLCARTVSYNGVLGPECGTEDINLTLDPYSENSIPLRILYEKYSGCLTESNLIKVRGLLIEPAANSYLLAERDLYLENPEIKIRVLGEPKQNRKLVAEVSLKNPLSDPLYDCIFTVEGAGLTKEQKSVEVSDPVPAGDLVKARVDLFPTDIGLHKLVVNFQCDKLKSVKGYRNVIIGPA
# Procedure: as §1
IC50 [2] [nM],IC50 [3] [nM],Structure (SMILES),loss of body weight compared to vehicle [1],severity of motor symptoms compared to vehicle [1],"average maximal disease score ([1]; 25 mg/kg i.p. twice daily from onset, scale 0-5, vehicle 3.9) [score]"
160,54,"C=CC(=O)NC1CCN(S(=O)(=O)c2cccc3c(NC(=O)c4ccc(OC)c(OC)c4)cccc23)CC1 [BJJF078, 3,4-Dimethoxy-N-(5-[4-(acryloylamino)piperidine-1-sulfonyl]-naphthalen-1-yl)-benzamide]",no differences,no differences,
440,6800,"O=C(NCC1CC(Br)=NO1)C1CCCN1C(=O)OCc1cnc2ccccc2c1 (stereo not drawn) [ERW1041E, 2-[(3-Bromo-4,5-dihydro-isoxazol-5-ylmethyl)-carbamoyl]-pyrrolidine-1—carboxylic acid quinolin-3-ylmethyl ester]",not affected,modest but significant reduction,3.4
